Test results reported in US7091238B1, “Thienylhydrazon with digitalis-like properties (positive inotropic effects)” (University of Maryland, priority 1999, dated 2006).

Experiments:
[1] = Toxicity study: body weight after injection; type: in vivo, mice; conditions: vs saline and solvent vehicle controls, 1–15 days of treatment
Protocol: b. Rats were weighed before and after treatment with LASSBio 204. […] Six rats were examined in each group, measurements were made after 1–15 days of treatment. […] Mice were injected with LASSBio-294 and their blood examined for cell changes. Experimental groups received 2 or 10 mg/kg of drug. […] Table 4 lists blood chemistry analysis of mice treated with LASSBio-294. Experimental groups received 2 or 10 mg/kg of drug. Controls were saline and solvent. […] The low values of glucose found could be due to an artifact of the technique, glucose being a byproduct of hemolysis. […] General Method

[2] = test system: sarcoplasmic reticulum of cardiac muscle fibers; test: Caffeine-induced contracture of saponin-treated left ventricular fibers (Ca2+ uptake/storage by sarcoplasmic reticulum); set-up: species or system Wistar rats
Protocol: FIG. 7. Bundles of left ventricular fibers were treated with saponin and exposed to 0.5 mM CaCl2 to enable maximal tension development (Po). The contracture initiated by caffeine (20 mM) was measured after treatment of the sarcoplasmic reticulum (SR) with a solution of pCa 6.6 in the absence or presence of LASSBio-294 (100 μM0 for 0.5, 1.0 and 5.0 min. N=6. Calibration: Vertical, 10 mm=20 mg load; Horizontal, 10 mm=40 sec.
FIG. 8. Contracture induced by caffeine in relation to loading of the sarcoplasmic reticulum with a solution of pCa 6.6.
FIG. 9. The contractual responses were obtained during exposure to 20 mM caffeine after loading of the sarcoplasmic reticulum with pCA 6.6 in the absence and the presence of LASSBio-294.
FIG. 11. Concentration-response relationship for contracture induced by caffeine in the presence of 100 μM LASSBio-294. *p<0.01.
b. Graphic representation of the tests in FIG. 7 showing the effect of LASSBio-294 on uptake of Ca^2+ by sarcoplasmic reticulum in isolated cardiac muscle with sarcolemma removed. FIG. 9 illustrates the effect of LASSBio-294 on tension in isolated cardiac muscle with sarcolemma removed was measured. Measurement of contraction induced by caffeine, as a function concentration of LASSBio-294 in bathing solution. FIG. 9 is a graphic representation of the effect of increasing concentrations of LASSBio-294 between 0 and 20 μM. […] FIG. 12 illustrates the effect of LASSBio-294 on sensitivity of cardiac fibers to calcium. Calcium levels can induce isometric twitch. […] FIG. 13 provides a graphic representation of data in FIG. 12. General Method
Bundles of left ventricular muscle (130 μm diameter and 1–2 mm in thickness) from Wistar rats were dissected out and mounted for measurement of isometric tension. The muscles were treated with saponin solution (0.5%) for 5 minutes to […] the permeability of the sarcolemma. The membranes of the SR were then […] with Triton X-100 (1% v/v) with the objective of investigating the effects of LASSBio-294 on the sensitivity of the contractile system Ca^2+. […] Caffeine is used to elicit contraction in muscle. Comparison of caffeine alone to caffeine in the presence of LASSBio-294 was measured.

[3] = test system: Ca^2+-ATPase extracted from heart muscle or gastrocnemius muscle; test: Effect on Ca2+-ATPase; type: biochemical; conditions: enzyme from rat heart or gastrocnemius muscle
Excerpt: (§1) Determination of phosphodiesterase direct effect was also negative.

phosphodiesterase = test: Phosphodiesterase direct effect; type: biochemical
Excerpt: as §1

## O=C(NN=Cc1cccs1)c1ccc2c(c1)OCO2 [LASSBio-294, 3,4-methylenedioxybenzoyl-2-thienylhydrazone]
[1]
  body weight: unaffected
[1]; listed as LASSBio294
  body weight: no change in weight
[2]; 100 μM, loading at pCa 6.6, 20 mM caffeine contracture
  uptake of Ca^2+ by the sarcoplasmic reticulum: increases uptake of Ca^2+
[2]; 20 mM caffeine, concentrations between 0 and 20 μM
  response to caffeine as a function of compound concentration: increases until 10 μM
[2]; caffeine 0.05 to 10 mM, 100 μM compound vs control
  contraction (isometric tension) elicited by caffeine: increased over control at all concentrations
[2]; cardiac muscle fibers
  storage of Ca^2+ by the sarcoplasmic reticulum: increases the storage of Ca^2+
[3]
  effect on Ca^2+-ATPase: did not affect
phosphodiesterase
  phosphodiesterase direct effect: negative
